In US10485235B2, “Aryloxypyrimidinyl ethers as herbicides” (FMC Corporation, priority 2015, dated 2019):

What was measured:
Assay type in all cases: in vivo
kochia (Kochia scoparia) [1] = test: Test A preemergence, kochia; conditions: Bassia scoparia, pre-emergence, 240 h, Preemergence, 0 to 100 scale (0 no effect, 100 complete control), read-out: Plant response rating, Kochia; for pest or weed control at 125 g/ha: 125 g ai/ha
Summary of the method: (§1)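 Planted seeds in loam soil mixed with sand; sprayed soil directly (pre). Grew seedlings to one- to two-leaf stage, 2–10 cm; sprayed foliage (post). Held in greenhouse ~10 days. Rated injury visually vs untreated controls, 0–100.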

[2] = tested on: ragweed (common ragweed, Ambrosia elatior); test: Test A preemergence, ragweed; conditions: Ambrosia artemisiifolia, pre-emergence, 240 h, Preemergence, 0 to 100 scale (0 no effect, 100 complete control), read-out: Plant response rating, Ragweed; for pest or weed control at 125 g/ha: 125 g ai/ha
Summary of the method: as §1

[3] = tested on: barnyardgrass (Echinochloa crus-galli); test: Test A postemergence, barnyardgrass; conditions: Echinochloa crus-galli, post-emergence, 240 h, postemergence, 0 to 100 scale, 0 is no effect, 100 is complete control, approximately 10 days, read-out: Plant response rating, Barnyardgrass; for pest or weed control at 125 g/ha: 125 g ai/ha
Summary of the method: as §1

kochia (Kochia scoparia) [4] = test: Test A postemergence, kochia; conditions: Bassia scoparia, post-emergence, 240 h, postemergence, 0 to 100 scale, 0 is no effect, 100 is complete control, approximately 10 days, read-out: Plant response rating, Kochia; for pest or weed control at 125 g/ha: 125 g ai/ha
Summary of the method: as §1

corn (Zea mays) = test: Test A postemergence, corn; conditions: Zea mays, post-emergence, 240 h, postemergence, 0 to 100 scale, 0 is no effect, 100 is complete control, approximately 10 days; for Corn plant response rating (crop injury, 0 = no effect, 100 = complete kill) at 125 g/ha: 125 g ai/ha
Summary of the method: as §1

[5] = tested on: foxtail, giant (giant foxtail, Setaria faberii); test: Test A preemergence, giant foxtail; conditions: Setaria faberi, pre-emergence, 240 h, Preemergence, 0 to 100 scale (0 no effect, 100 complete control), read-out: Plant response rating, Foxtail, Giant; for pest or weed control at 125 g/ha: 125 g ai/ha
Summary of the method: as §1

[6] = tested on: sedge, umbrella (small-flower umbrella sedge, Cyperus difformis); test: Test B flooded paddy test, umbrella sedge; conditions: Cyperus difformis; 250 g ai/ha, Flood; visual rating after 13 to 15 days; scale 0 to 100, 0 is no effect, 100 is complete control; read-out: Plant response rating, Sedge, Umbrella
Summary of the method: (§2)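 Seedlings at the 2-leaf stage are flooded to 3 cm and treated via the paddy water. Greenhouse plants are compared with controls after 13 to 15 days and given a 0 (no effect) to 100 (complete control) rating.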

[7] = tested on: foxtail, giant (giant foxtail, Setaria faberii); test: Test A postemergence, giant foxtail; conditions: Setaria faberi, post-emergence, 240 h, postemergence, 0 to 100 scale, 0 is no effect, 100 is complete control, approximately 10 days, read-out: Plant response rating, Foxtail, Giant; for pest or weed control at 125 g/ha: 125 g ai/ha
Summary of the method: as §1

[8] = tested on: ryegrass, Italian (Italian ryegrass, Lolium multiflorum); test: Test A preemergence, Italian ryegrass; conditions: Lolium multiflorum, pre-emergence, 240 h, Preemergence, 0 to 100 scale (0 no effect, 100 complete control), read-out: Plant response rating, Ryegrass, Italian; for pest or weed control at 125 g/ha: 125 g ai/ha
Summary of the method: as §1

[9] = tested on: wheat (Triticum aestivum); test: Test A postemergence, wheat; conditions: Triticum aestivum, post-emergence, 240 h, postemergence, 0 to 100 scale, 0 is no effect, 100 is complete control, approximately 10 days, read-out: Plant response rating, Wheat; for plant injury at 125 g/ha: 125 g ai/ha
Summary of the method: as §1

[10] = tested on: blackgrass (Alopecurus myosuroides); test: Test A postemergence, blackgrass; conditions: Alopecurus myosuroides, post-emergence, 240 h, postemergence, 0 to 100 scale, 0 is no effect, 100 is complete control, approximately 10 days, read-out: Plant response rating, Blackgrass; for pest or weed control at 125 g/ha: 125 g ai/ha
Summary of the method: as §1

rice (Oryza sativa) = test: Test B flooded paddy test, rice; conditions: Oryza sativa; 250 g ai/ha, Flood; visual rating after 13 to 15 days; scale 0 to 100, 0 is no effect, 100 is complete control; read-out: Plant response rating, Rice
Summary of the method: as §2

[11] = tested on: galium (catchweed bedstraw, Galium aparine); test: Test A postemergence, galium; conditions: Galium, post-emergence, 240 h, postemergence, 0 to 100 scale, 0 is no effect, 100 is complete control, approximately 10 days, read-out: Plant response rating, Galium; for pest or weed control at 125 g/ha: 125 g ai/ha
Summary of the method: as §1

[12] = tested on: ragweed (common ragweed, Ambrosia elatior); test: Test A postemergence, ragweed; conditions: Ambrosia artemisiifolia, post-emergence, 240 h, postemergence, 0 to 100 scale, 0 is no effect, 100 is complete control, approximately 10 days, read-out: Plant response rating, Ragweed; for pest or weed control at 125 g/ha: 125 g ai/ha
Summary of the method: as §1

[13] = tested on: barnyardgrass (Echinochloa crus-galli); test: Test B flooded paddy test, barnyardgrass; conditions: Echinochloa crus-galli; 250 g ai/ha, Flood; visual rating after 13 to 15 days; scale 0 to 100, 0 is no effect, 100 is complete control; read-out: Plant response rating, Barnyardgrass
Summary of the method: as §2

Row | Compound | pest or weed control at 125 g/ha (kochia (Kochia scoparia) [1]) [%] | pest or weed control at 125 g/ha [2] [%] | pest or weed control at 125 g/ha [3] [%] | pest or weed control at 125 g/ha (kochia (Kochia scoparia) [4]) [%] | Corn plant response rating (crop injury, 0 = no effect, 100 = complete kill) at 125 g/ha (corn (Zea mays)) [%] | pest or weed control at 125 g/ha [5] [%] | pest or weed control at 250 g/ha [6] [%] | pest or weed control at 125 g/ha [7] [%] | pest or weed control at 125 g/ha [8] [%] | plant injury at 125 g/ha [9] [%] | pest or weed control at 125 g/ha [10] [%] | plant injury at 250 g/ha (rice (Oryza sativa)) [%] | pest or weed control at 125 g/ha [11] [%] | pest or weed control at 125 g/ha [12] [%] | pest or weed control at 250 g/ha [13] [%] | further results
1 | N#Cc1cccc(Oc2ncc(Cl)cn2)c1OCCCC(F)(F)F [Compound 5, 3-[(5-chloro-2-pyrimidinyl)oxy]-2-(4,4,4-trifluorobutoxy)benzonitrile] | 100 | 10 | 100 | 100 | 80 | 100 | 95 | 100 | 60 | 40 | 90 | 40 | 100 | 30 | 50 | pest or weed control at 31 g/ha (kochia (Kochia scoparia) [1]; 31 g ai/ha): 90%; pest or weed control at 31 g/ha ([2]; 31 g ai/ha): 10%; pest or weed control at 31 g/ha ([3]; 31 g ai/ha): 70%; pest or weed control at 31 g/ha (kochia (Kochia scoparia) [4]; 31 g ai/ha): 100%; Corn plant response rating (crop injury, 0 = no effect, 100 = complete kill) at 31 g/ha (corn (Zea mays); 31 g ai/ha): 50%; pest or weed control at 31 g/ha ([5]; 31 g ai/ha): 100%; pest or weed control at 31 g/ha ([7]; 31 g ai/ha): 60%; pest or weed control at 31 g/ha ([8]; 31 g ai/ha): 20%; plant injury at 31 g/ha ([9]; 31 g ai/ha): 20%; pest or weed control at 31 g/ha ([10]; 31 g ai/ha): 30%; pest or weed control at 31 g/ha ([11]; 31 g ai/ha): 80%; pest or weed control at 31 g/ha ([12]; 31 g ai/ha): 10%
2 | CCCCOc1c(C#N)cccc1Oc1ncc(Cl)cn1 [Compound 35, 2-butoxy-3-[(5-chloro-2-pyrimidinyl)oxy]benzonitrile] | 100 | 10 | 80 | 100 | 20 | 100 | 70 | 90 | 30 | 10 | 70 | 0 | 90 | 10 | 30 | pest or weed control at 500 g/ha (kochia (Kochia scoparia) [1]; 500 g ai/ha): 100%; pest or weed control at 500 g/ha ([2]; 500 g ai/ha): 30%; pest or weed control at 500 g/ha ([3]; 500 g ai/ha): 100%; pest or weed control at 500 g/ha (kochia (Kochia scoparia) [4]; 500 g ai/ha): 100%; Corn plant response rating (crop injury, 0 = no effect, 100 = complete kill) at 500 g/ha (corn (Zea mays); 500 g ai/ha): 70%; pest or weed control at 500 g/ha ([5]; 500 g ai/ha): 100%; pest or weed control at 500 g/ha ([7]; 500 g ai/ha): 90%; pest or weed control at 500 g/ha ([8]; 500 g ai/ha): 90%; plant injury at 500 g/ha ([9]; 500 g ai/ha): 40%; pest or weed control at 500 g/ha ([10]; 500 g ai/ha): 90%; pest or weed control at 500 g/ha ([11]; 500 g ai/ha): 100%; pest or weed control at 500 g/ha ([12]; 500 g ai/ha): 20%
